Patent US10899763B2, “Crystalline forms of salts of fused penta-cyclic dihydrodiazepinocarbazolones, and uses thereof” (BEIGENE, LTD., priority 2017, dated 2021)
Like-named read-outs stand apart in the source and are kept apart here.

Experiments:
[1] = Kinetic solubility test in bio-relevant media and H2O; type: physicochemical; conditions: for solubility: thermodynamic from solid; for solubility / dissolution profile in bio-relevant media (FaSSIF and FeSSIF): RT; for dissolution profile in bio-relevant media (FaSSIF and FeSSIF): sampled at 1 hr, 4 hrs and 24 hrs
Description: About 20 mg of each sample (Forms A, B or C2) was equilibrated in 3.0 mL of three bio-relevant media, i.e., fasted state small intestinal fluid (FaSSIF), Fed State Simulating Intestinal Fluid (FeSSIF) and Simulated Gastric Fluid (SGF), or H2O into each 4-mL plastic vial. The suspensions were mixed via triturating (25 rpm) at RT, with each suspension sampled at the end of 1 hr, 4 hrs and 24 hrs, respectively.

[2] = Phase I clinical safety study; type: in vivo; conditions: capsules, 2.5-120 mg bid, 25 subjects
[3] = Solid-state stability test; type: physicochemical; conditions: HPLC
Description: Each sample (Forms A, B or C2) was exposed to both conditions of 25° C./60% RH and 40° C./75% RH. After one-week storage, all the samples were characterized by XRPD to test any solid form change and by HPLC to check the purity change.

[4] = Hygroscopicity test (DVS isotherm, XRPD); type: physicochemical; conditions: for Water uptake % at 80% RH, Adsorption / Water uptake % at 80% RH, Desorption: DVS at 25° C.; for Hygroscopicity: concluded from the water uptake from adsorption cycle
Description: To investigate the solid form stability as a function of humidity, DVS isotherm plot (at 25° C.) and XRPD pattern were collected, see Table 11. The uptake percentage differences between desorption and adsorption are speculated to be related to the replacement of possible residual solvent with moisture.

[5] = Solid form change on heating (XRPD, VT-XRPD); type: physicochemical
Description: Associated with the results of TGA/DSC and solution NMR, Form B was confirmed to be an anhydrate.
To confirm the form change during heating of Form C2, VT-XRPD was conducted under protection of nitrogen.

MDA-MB-231 cells = assay: Synthetic lethality, CellTiter-Glo cell viability, MDA-MB-231; type: cell-based; conditions: MDA-MB-231, 7-day exposure, table; read-out: EC50 for growth inhibition
Description: (§1) MDA-MB-231 cells that is not BRCA gene mutant or other homologous recombination deficient were maintained in DMEM supplemented with fetal bovine serum (10% FBS), 100 units/ml penicillin and 0.1 mg/ml streptomycin. BRCA1-deficient cell line MDA-MB-436 was maintained in RPMI-1640 supplemented with 10% FBS, 100 units/ml penicillin and 0.1 mg/ml streptomycin. Both two cell lines were kept at 95% humidity and 5% CO2 in a 37° C. incubator.
(§2) The number of tumor cells seeded per well of a 96-well plate was optimized for each cell line to ensure logarithmic growth over the 7 days treatment period. Cells were left to attach for 16 hours and then treated with specific concentrations of test compounds. Following a 7-day exposure to the compound, the growth-inhibitory activity of compounds was determined using CellTiter-Glo luminescent cell viability assay (Promega). Luminescent signal was measured using PHERAstar FS reader (BMG Labtech). Cell viability was expressed as relative to mock treatment control. EC50 values for growth inhibition were calculated by fitting dose-dependent data to the four-parameter logistic model using XLfit software.

[6] = system: MDA-MB-436 (BRCA1 Deficient); assay: Synthetic lethality, CellTiter-Glo cell viability, MDA-MB-436; type: cell-based, human; conditions: 7-day exposure, table, read-out: EC50 for growth inhibition
Description: as §1, §2

[7] = system: intracellular PARP activity in HeLa cells; assay: Intracellular target inhibition: cellular PAR formation in hydrogen peroxide treated HeLa cells; type: cell-based; conditions: read-out: IC50 (nM) in PARylation assay
Description: The assay was performed as follows:
Cells were plated into a 96-well plate with clear bottom and black wall at a density of 5000 cells per well (100 μL). […] In the following day, H2O2 solution in PBS (final concentration 200 μM) was added and the plate was kept at 37° C. for 5 minutes. Then the medium was gently removed by plate inversion, and the cells were fixed by ice-cold MeOH at −20° C. for 20 minutes. […] After removal of solution and repeated wash with PBS, the PAR polymer level was estimated by ArrayScan VTI (ThermoFisher). Percent inhibition was determined on the basis of the residual enzyme activity in the presence of increasing PARP inhibitor concentration. IC50 values were calculated by fitting dose-dependent data to the four-parameter logistic model using XLfit software.

[8] = FaSSIF, read-out: solubility in FaSSIF
[9] = FeSSIF, read-out: solubility in FeSSIF

For C[C@]12CCCN1CC1=NNC(=O)c3cc(F)cc4[nH]c2c1c34 [Crystalline Sesqui-Hydrate of Compound 1], the solubility [1, 8] was less than 0.1 mg/mL, the solubility [1, 9] was 1 mg/mL and the “clinical safety and tolerability” value [2] was “safe and well tolerated”.
With C[C@]12CCCN1CC1=NNC(=O)c3cc(F)cc4[nH]c2c1c34 [Form A] the “Purity of initial(%)” value ([3]; 25° C./60% RH (7 days)) was 100.1%, the “Purity of initial(%)” value ([3]; 40° C./75% RH (7 days)) was 100.1% and the “dissolution profile in bio-relevant media (FaSSIF and FeSSIF)” value (“dissolution profile” below) [1] was “good solubility was observed in FaSSIF and FeSSIF at the first time point, but the values went down after equilibrated for a longer time”. The “dissolution profile” value ([1]; listed as phosphate salt of Compound 1) was “higher solubility at the first time point, but the values went down after equilibrated for a longer time”, the “Water uptake % at 80% RH, Adsorption” value [4] was 1.9% and the “Water uptake % at 80% RH, Desorption” value [4] was 2.1%. For the same molecule, the Hygroscopicity [4] was “Hygroscopic” and the “form change after heating and cooling at ambient conditions (XRPD)” value ([5]; heated to 170° C.) was “No form change”.
In the case of C[C@]12CCCN1CC1=NNC(=O)c3cc(F)cc4[nH]c2c1c34.O=C(O)/C=C\C(=O)O [Form B], the “Purity of initial(%)” value ([3]; 25° C./60% RH (7 days)) is reported as 100.2%, the “Purity of initial(%)” value ([3]; 40° C./75% RH (7 days)) is reported as 100.1% and the “dissolution profile” value [1] is reported as “Steady dissolution rate”. For the same molecule, the “dissolution profile” value ([1]; listed as maleate salt of Compound 1) was “steady dissolution profiles”, the solubility [1, 8] was roughly 0.2 mg/mL and the solubility [1, 9] was roughly 0.5 mg/mL. The “physical stability of the solid suspended in the media” value ([1]; up to 24 hours) was “physically stable”, the “Water uptake % at 80% RH, Adsorption” value [4] was 0.7% and the “Water uptake % at 80% RH, Desorption” value [4] was 2.4%. For the same molecule, the Hygroscopicity [4] was “Slightly hygroscopic” and the “form change after heating and cooling at ambient conditions (XRPD)” value ([5]; heated to 150° C.) was “No form change”.
In the case of C[C@]12CCCN1CC1=NNC(=O)c3cc(F)cc4[nH]c2c1c34.O=C(O)/C=C/C(=O)O [Form C2], the “Purity of initial(%)” value ([3]; 25° C./60% RH (7 days)) is reported as 100.2%, the “Purity of initial(%)” value ([3]; 40° C./75% RH (7 days)) is reported as 100.0% and the “dissolution profile” value [1] is reported as “good solubility was observed in FaSSIF and FeSSIF at the first time point, but the values went down after equilibrated for a longer time”. For the same molecule, the “dissolution profile” value ([1]; listed as fumarate salt of Compound 1) was “higher solubility at the first time point, but the values went down after equilibrated for a longer time”, the “Water uptake % at 80% RH, Adsorption” value [4] was 0.2% and the “Water uptake % at 80% RH, Desorption” value [4] was 0.3%. The Hygroscopicity [4] was “Slightly hygroscopic”, the “physical stability at ambient conditions” value ([5]; ambient conditions) was “good physical stability” and the “form change during heating (VT-XRPD)” value ([5]; heating to 140° C. and cooling back to 30° C. with N2 flow) was “a new form named as Form C3 was observed”.
In the case of C[C@]12CCCN1CC1=NNC(=O)c3cc(F)cc4[nH]c2c1c34.O=C(O)/C=C/C(=O)O [Form C3], the “time to convert back to Form C2 after exposure to ambient conditions” value ([5]; ~25° C./70% RH) is reported as no more than 1 h.
O=C(c1cc(Cc2n[nH]c(=O)c3ccccc23)ccc1F)N1CCN(C(=O)C2CC2)CC1 [Olaparib] gave an EC50 (MDA-MB-231 cells) of roughly 5 µM and an EC50 [6] of 0.021 ± 0.007 µM.
C[C@]1(c2nc3c(C(N)=O)cccc3[nH]2)CCCN1 [Veliparib] showed an IC50 [7] of 2.66 nM, an EC50 (MDA-MB-231 cells) greater than 10 µM and an EC50 [6] of 0.82 ± 0.3 µM.
